From patent US20240158448A1, “MULTIVALENT NANO-'SELF' PEPTIDES AND USES THEREOF” (THE TRUSTEES OF THE UNIVERSITY OF PENNSYLVANIA, priority 2021, published 2024)
“Also recorded” adds a separate entry of the source. Read-outs that look alike come from different tables or passages of the source. Non-standard residues stand in square brackets, D forms with d. Primed or numbered codes have the meaning given here. No end group written: not given here. PEG5′ = linker of 5 PEG units between residues

Legend:
THP-1 macrophages = assay: Phosphotyrosine (pTyr) staining of THP-1 macrophages; format: cell-based, human; conditions: 20 nM peptide
Procedure: Phosphotyrosine (pTyr) staining. THP-1 monocytes were PMA differentiated for 48 hours. Macrophages were washed with RPMI three times then incubated with 50 μM and 20 nM of either nS-F or nS-FF for 1 hour at 37° C., 5% CO2 and 95% humidity. The same conditions were replicated with the addition of 5 μg/mL anti-CD47. Excess peptide was washed with PBS then macrophages were fixed. […] After washing with PBS, the macrophages were incubated with 1:100 mouse anti-pTyr (Santa Cruz Biotechnology) for 1 hour at room temperature with shaking. Macrophages were washed with PBS then stained with AlexaFluor 488 donkey anti-mouse (1:1000; Invitrogen) and 1 μg/mL Hoechst 33342 for 1 hour with shaking then washed again. Fluorescence imaging and quantification was performed as described elsewhere herein.

human THP-1 macrophages = assay: In vitro phagocytosis assay: opsonized human RBCs engulfed by peptide-treated THP-1 macrophages; format: cell-based; conditions: for EC50: opsonized human RBCs, human macrophages
Procedure: In vitro phagocytosis assay. Fresh human RBCs were washed twice with 50 mM EDTA (Thermo Fischer) in PBS (Gibco) then twice with 5% FBS in PBS. RBCs were opsonized with 20 μg/mL rabbit anti-human RBC antibody (Rockland) in 5% FBS for 1 hour at RT with shaking. For CD47 blocked RBCs, 5 μg/mL of mouse anti-human CD47 (B6H12; BD Biosciences) were added. Thereafter, RBCs were washed with PBS three times and stained with PKH26 dye (1:800 dilution in PBS; Sigma) for 1 hour at RT with shaking in the dark. RBCs were washed and resuspended in PBS.
THP-1 monocytes were PMA differentiated in RPMI for 48 hours. Macrophages were then washed with RPMI media three times. For SIRPα blocked THP-1 macrophages, 20 nM, 1 μM or 50 μM of the nano—Self peptides were incubated with the THP-1 macrophages for 1 hour at 37 ° C., 5% CO2 and 95% humidity. Those THP-Is were then washed with RPMI three times.
(§1) CO2 and 95% humidity. Macrophages were then washed with RPMI three times. Adherent and uninternalized RBCs were lysed with water for 30 seconds followed by immediate replacement with RPMI media. In order to distinguish remaining adherent RBCs from internalized RBCs, opsonized RBCs were stained with AlexaFluor 647 donkey anti-rabbit (binds to rabbit polyclonal opsonin on RBC; Invitrogen) IgG (1:1000) while unopsonized, CD47 blocked RBCs were stained with AlexaFluor 647 donkey anti-mouse (binds to mouse monoclonal anti-CD47 on RBCs; Invitrogen) IgG (1:1000) for 30 minutes. After washing, macrophages were fixed with 4% formaldehyde for 15 minutes at RT, washed with PBS, stained with 1 μg/mL Hoechst 33342, and then washed with PBS again. Fluorescence imaging was performed as described elsewhere herein and quantification was done using ImageJ. At least 200 cells were analyzed and experiments were repeated at least three times.

[1] = tested on: mouse bone marrow derived macrophages (BMDMs); assay: Phagocytosis of anti-TYRP1 opsonized B16F10 melanoma cells by mouse bone marrow derived macrophages; format: cell-based
Procedure: B16F10 cells: Bone marrow cells were isolated from femurs and tibias of healthy C57BL6/J mice (The Jackson Laboratory) and cultured in 10-cm petri dishes containing IMDM (Gibco) supplemented with 10% v/v FBS, 1% v/v penicillin/streptomycin, and 1:10,000 macrophage colony stimulating factor cytokine (M-CSF; Biolegend) for 7 days at 37° C., 5% CO2 and 95% humidity. All animal experiments were performed according to protocols approved by the University of Pennsylvania's IACUC (protocol #805977 and #804455). The resulting mouse bone marrow derived macrophages (BMDMs) were washed with PBS containing Ca2^+/Mg2^+ (Gibco) then detached with 0.25% trypsin-EDTA (Gibco) and re-plated in 6-well tissue culture plates using IMDM+M-CSF for 24 hours.
Mouse melanoma B16F10 cells were washed with PBS containing Ca2-/Mg2- and then trypsinized with 0.05% trypsin-EDTA. After washing twice with PBS, the cells were labeled with 1:10,000 CFDA—SE (Thermo Fisher) in PBS for 10 minutes. B16F10 cells were opsonized with 10 μg/mL anti-TYRP1 (TA99; Bio X Cell) in PBS for 2 hours at 4° C.with occasional inverting. For CD47 blocked B16F10 cells, 5 μg/mL of […] were added. During the incubation time, the BMDMs were washed with media then stained with 1:2,000 CellTracker Deep Red (Thermo Fisher) in PBS with Ca2^+/Mg2^+ for 10 min. After washing, 50 μM of the nano—Self peptides were incubated with the BMDMs for 1 hour at 37° C., 5% CO2 and 95% humidity. Finally, BMDMs were washed twice with PBS and then twice with serum-free IMDM.
Without removing the supernatant, the opsonized melanoma cells were added to the labeled BMDMs at a ratio of 2:1 for 2 hours at 37° C., 5% CO2 and 95% humidity. During the last 15 minutes of the assay, the cells were Hoechst stained. The wells were washed with serum free IMDM then fixed with 4% formaldehyde for 15 minutes at RT, and PBS washed. Fluorescence imaging was performed using an Olympus IX71 with a digital EMCCD camera (Cascade 512B) and a 40×/0.6 NA objective. Quantification was done with ImageJ (NIH). At least 200 cells were analyzed and two-tailed student's t-test was used to determine statistical significance.

[2] = tested on: mouse J774A.1 macrophages; assay: In vitro phagocytosis assay: opsonized human RBCs engulfed by mouse J774A.1 macrophages; format: cell-based; conditions: saturating / 50 μM peptide
Procedure: as §1, with “In vitro phagocytosis assay. […] For CD47 blocked RBCs, 5 μg/mL of mouse anti-human CD47 (B6H12; BD Biosciences) were added. Thereafter, RBCs were washed with PBS three times and stained with PKH26 dye (1:800 dilution in PBS; Sigma) for 1 hour at RT with shaking in the dark. RBCs were washed and resuspended in PBS. J774A.1 macrophages were plated for 24 hours in RPMI. For SIRPα blocked J774A.1 macrophages, the same peptide blocking procedure as described elsewhere herein was used with the addition of a positive control using 5 μg/mL rat anti-mouse SIRPα ([…]; BD Biosciences). […] CO2” for “CO2”

Substance: (VTELFREG-PEG5)2-K (VTELFREG[PEG5′]K[PEG5′]GERFLETV; not fully specified; also: bivalent lysine core) [nS-FF, bivalent nS-F linked through PEG5 linkers to a C-terminal Lys]
- effect on pTyr signal (THP-1 macrophages): suppressed pTyr at nanomolar concentrations; also recorded: suppressed passivating pTyr intensity; also recorded: suppressed pTyr signal; also recorded: efficiently suppresses phosphorylation
- effect on phagocytosis of opsonized RBCs (words) (human THP-1 macrophages; 20 nM peptide): successful in activating THP-1 to engulf opRBCs; also recorded: more potent in enhancing phagocytosis
- macrophages with at least one opsonized RBC internalized (human THP-1 macrophages; 20 nM peptide, anti-RBC opsonized RBCs, 1 h assay): ~40%
- increase in phagocytosis at higher concentration (human THP-1 macrophages; 1 μM, 50 µM versus 20 nM): ~5%
- EC50 (human THP-1 macrophages; read-out: efficacy constant (Keff) for phagocytosis): ~8 nM
- activity of bivalent peptide in primary mouse macrophages [1]: low activity; also recorded: reduced activity with mouse macrophages

Substance: VTELTREG [nS-wt, 8-amino acid wild type nano-Self peptide from the CD47 loop, C-terminal amide]
- effect on phagocytosis of opsonized RBCs (words) [2]: matches anti-CD47 blockade effects
- macrophages containing opsonized RBCs (human THP-1 macrophages; maximum peptide concentration 50 μM, anti-RBC opsonized RBCs): ~30%
- EC50 (human THP-1 macrophages; read-out: effective potency (keff) for phagocytosis): ~1000 nM
- effect on phagocytosis of opsonized RBCs (words) (human THP-1 macrophages; saturating / 50 μM peptide): least effective among monovalents; also recorded: Lower levels of phagocytosis; also recorded: gives the same result as anti-CD47
- effect on phagocytosis of opsonized WT and SIRPα KO B16 cells ([1]; 50 μM peptide): lower levels
